{
  "source": "ChEMBL document CHEMBL5463729",
  "about": "“Data for DCP probe BAY 1753011” (2023)",
  "key": {"[1]": {"target": "Fibroblast growth factor receptor 4 (Homo sapiens) (UniProt P22455)", "experiment": "Inhibition of FGFR4(h) at 10.0 µM in the Eurofins Kinase panel", "conditions": "Compound concentration 10.0 uM"}, "[2]": {"target": "Growth hormone secretagogue receptor type 1 (Homo sapiens) (UniProt Q92847)", "conditions": "Compound concentration 10.0 uM"}, "[3]": {"target": "Equilibrative nucleoside transporter 1/2/3/4 (Homo sapiens) (UniProt Q99808+Q7RTT9+Q14542+Q9BZD2)", "conditions": "Compound concentration 10.0 uM"}, "[4]": {"target": "Mitogen-activated protein kinase 1 (Homo sapiens) (UniProt P28482)", "sequence (P28482 whole entry)": "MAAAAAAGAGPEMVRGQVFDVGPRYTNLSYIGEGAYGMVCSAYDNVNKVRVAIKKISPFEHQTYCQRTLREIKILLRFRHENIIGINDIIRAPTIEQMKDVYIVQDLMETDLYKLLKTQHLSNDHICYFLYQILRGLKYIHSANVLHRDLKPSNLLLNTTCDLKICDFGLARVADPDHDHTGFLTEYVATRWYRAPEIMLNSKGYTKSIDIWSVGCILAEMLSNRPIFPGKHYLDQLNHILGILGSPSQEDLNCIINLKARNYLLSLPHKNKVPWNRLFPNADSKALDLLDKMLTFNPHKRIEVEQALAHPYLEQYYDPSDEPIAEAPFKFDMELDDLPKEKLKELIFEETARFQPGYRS", "experiment": "Inhibition of Protein Serine/Threonine Kinase, MAPK1 (ERK2) at 10 µM in the Eurofins-Panlabs enzyme assay (Eurofins_assay_171120)", "design": "substrate with concentration", "conditions": "Compound concentration 10.0 uM"}, "[5]": {"target": "cAMP-dependent protein kinase catalytic subunit beta (Homo sapiens) (UniProt P22694)", "experiment": "Inhibition of PKACbeta(h) at 10.0 µM in the Eurofins Kinase panel", "conditions": "Compound concentration 10.0 uM"}, "[6]": {"target": "Mitogen-activated protein kinase 14 (Homo sapiens) (UniProt Q16539)", "sequence (Q16539 whole entry)": "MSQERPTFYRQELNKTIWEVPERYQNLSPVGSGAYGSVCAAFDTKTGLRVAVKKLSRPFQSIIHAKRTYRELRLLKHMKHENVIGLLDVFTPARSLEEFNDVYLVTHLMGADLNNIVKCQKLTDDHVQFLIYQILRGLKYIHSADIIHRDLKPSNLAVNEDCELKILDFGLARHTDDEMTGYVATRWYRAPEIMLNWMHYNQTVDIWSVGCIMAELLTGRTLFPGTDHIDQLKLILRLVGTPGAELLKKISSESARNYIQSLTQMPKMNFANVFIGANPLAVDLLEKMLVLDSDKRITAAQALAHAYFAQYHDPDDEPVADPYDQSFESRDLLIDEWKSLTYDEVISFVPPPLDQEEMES", "experiment": "Inhibition of SAPK2a(h) at 10.0 µM in the Eurofins Kinase panel", "conditions": "Compound concentration 10.0 uM"}, "[7]": {"target": "Platelet-activating factor receptor (Homo sapiens) (UniProt P25105)", "experiment": "Inhibition of Platelet Activating Factor (PAF) at 10 µM in the Eurofins-Panlabs radioligand binding assay (Eurofins_assay_265010)", "conditions": "Compound concentration 10.0 uM"}, "[8]": {"organism": "Homo sapiens", "experiment": "Inhibition of Nicotinic Acetylcholine at compound concentration of 10.0 uM in the Eurofins-Panlabs radioligand binding assay (Eurofins_assay_258590)", "assay_type": "protein-complex assay", "conditions": "Compound concentration 10.0 uM"}, "[9]": {"organism": "Rattus norvegicus", "experiment": "Inhibition of Glycine, Strychnine-Sensitive at 10 µM in the Eurofins-Panlabs radioligand binding assay (Eurofins_assay_239000)", "conditions": "Compound concentration 10.0 uM"}, "[10]": {"organism": "Rattus norvegicus", "experiment": "Inhibition of Rolipram at 10 µM in the Eurofins-Panlabs radioligand binding assay (Eurofins_assay_268811)", "assay_type": "protein assay", "design": "ligand concentration 1.8 nM", "conditions": "Compound concentration 10.0 uM"}, "[11]": {"target": "Neuropeptide Y receptor type 2 (Homo sapiens) (UniProt P49146)", "experiment": "Inhibition of Neuropeptide Y Y2 at 10 µM in the Eurofins-Panlabs radioligand binding assay (Eurofins_assay_257110)", "conditions": "Compound concentration 10.0 uM"}, "[12]": {"organism": "Oryctolagus cuniculus", "experiment": "Inhibition of Purinergic P2X at 10 µM in the Eurofins-Panlabs radioligand binding assay (Eurofins_assay_268700)", "assay_type": "protein assay", "conditions": "Compound concentration 10.0 uM"}, "[13]": {"target": "Vasopressin V1a receptor (Homo sapiens, UniProt P37288)", "sequence (P37288 whole entry)": "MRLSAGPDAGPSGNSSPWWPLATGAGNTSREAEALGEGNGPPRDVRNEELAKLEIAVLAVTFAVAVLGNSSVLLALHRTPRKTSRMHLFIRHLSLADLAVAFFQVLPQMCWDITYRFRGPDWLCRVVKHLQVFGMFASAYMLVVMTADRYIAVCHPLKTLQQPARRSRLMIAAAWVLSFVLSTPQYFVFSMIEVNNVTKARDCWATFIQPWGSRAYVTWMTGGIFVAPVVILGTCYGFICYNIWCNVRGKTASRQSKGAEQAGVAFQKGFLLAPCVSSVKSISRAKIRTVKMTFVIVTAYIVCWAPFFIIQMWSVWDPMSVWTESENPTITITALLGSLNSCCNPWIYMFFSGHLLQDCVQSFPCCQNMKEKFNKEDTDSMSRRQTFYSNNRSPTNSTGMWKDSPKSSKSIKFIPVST", "experiment": "Inhibition of Vasopressin V1A at compound concentration of 10.0 uM in the Eurofins-Panlabs radioligand binding assay (Eurofins_assay_287530)", "design": "ligand concentration 0.03 nM, non-specific ligand with concentration 1 uM (Arg8)-Vasopressin, incubation time 2 h, incubation temperature 25 C"}, "[14]": {"target": "Progesterone receptor (Homo sapiens) (UniProt P06401)", "experiment": "Inhibition of Progesterone PR-B at 10 µM in the Eurofins-Panlabs radioligand binding assay (Eurofins_assay_268020)", "design": "ligand concentration 1.4 nM", "conditions": "Compound concentration 10.0 uM"}, "[15]": {"target": "Voltage-dependent N-type calcium channel subunit alpha-1B (Homo sapiens) (UniProt Q00975)", "experiment": "Inhibition of Calcium Channel N-Type at 10 µM in the Eurofins-Panlabs radioligand binding assay (Eurofins_assay_216000)", "conditions": "Rattus norvegicus; Compound concentration 10.0 uM"}, "[16]": {"target": "3-hydroxy-3-methylglutaryl-coenzyme A reductase (Homo sapiens) (UniProt P04035)", "experiment": "Inhibition of HMG-CoA Reductase at compound concentration of 10.0 uM in the Eurofins-Panlabs enzyme assay (Eurofins_assay_124010)", "design": "substrate with concentration", "conditions": "Compound concentration 10.0 uM"}, "[17]": {"target": "SRSF protein kinase 2 (Homo sapiens) (UniProt P78362)", "sequence (P78362 whole entry, looked up)": "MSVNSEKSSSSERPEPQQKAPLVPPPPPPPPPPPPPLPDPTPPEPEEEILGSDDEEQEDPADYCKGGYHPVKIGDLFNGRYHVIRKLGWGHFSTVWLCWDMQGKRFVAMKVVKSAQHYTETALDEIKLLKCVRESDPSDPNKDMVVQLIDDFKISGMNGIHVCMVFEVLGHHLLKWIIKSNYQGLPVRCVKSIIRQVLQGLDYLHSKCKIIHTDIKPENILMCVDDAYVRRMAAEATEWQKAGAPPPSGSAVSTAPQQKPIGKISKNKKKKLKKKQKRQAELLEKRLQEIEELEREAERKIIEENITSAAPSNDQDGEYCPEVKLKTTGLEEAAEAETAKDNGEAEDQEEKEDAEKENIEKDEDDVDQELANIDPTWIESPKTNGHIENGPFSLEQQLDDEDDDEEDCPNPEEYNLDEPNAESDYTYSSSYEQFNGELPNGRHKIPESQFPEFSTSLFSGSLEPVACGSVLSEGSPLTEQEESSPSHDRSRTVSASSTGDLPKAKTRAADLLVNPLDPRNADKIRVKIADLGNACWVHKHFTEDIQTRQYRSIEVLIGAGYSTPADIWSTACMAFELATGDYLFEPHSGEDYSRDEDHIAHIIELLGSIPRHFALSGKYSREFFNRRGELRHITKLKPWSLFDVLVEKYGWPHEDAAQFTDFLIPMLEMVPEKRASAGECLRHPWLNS", "experiment": "Inhibition of SRPK2(h) at 10.0 µM in the Eurofins Kinase panel", "conditions": "Compound concentration 10.0 uM"}, "[18]": {"target": "Adenosine Transporter (Cavia porcellus) (UniProt H0V4R7+H0UUG1+H0V3Z5)", "experiment": "Inhibition of Transporter, Adenosine at compound concentration of 10.0 uM in the Eurofins-Panlabs radioligand binding assay (Eurofins_assay_202000)", "assay_type": "protein assay", "design": "ligand concentration 0.5 nM, non-specific ligand with concentration 5 uM Nitrobenzylthioinosine, incubation time 30 min, incubation temperature 25 C", "conditions": "Compound concentration 10.0 uM"}, "[19]": {"target": "AP2-associated protein kinase 1 (Homo sapiens) (UniProt Q2M2I8)", "sequence (Q2M2I8 whole entry, looked up)": "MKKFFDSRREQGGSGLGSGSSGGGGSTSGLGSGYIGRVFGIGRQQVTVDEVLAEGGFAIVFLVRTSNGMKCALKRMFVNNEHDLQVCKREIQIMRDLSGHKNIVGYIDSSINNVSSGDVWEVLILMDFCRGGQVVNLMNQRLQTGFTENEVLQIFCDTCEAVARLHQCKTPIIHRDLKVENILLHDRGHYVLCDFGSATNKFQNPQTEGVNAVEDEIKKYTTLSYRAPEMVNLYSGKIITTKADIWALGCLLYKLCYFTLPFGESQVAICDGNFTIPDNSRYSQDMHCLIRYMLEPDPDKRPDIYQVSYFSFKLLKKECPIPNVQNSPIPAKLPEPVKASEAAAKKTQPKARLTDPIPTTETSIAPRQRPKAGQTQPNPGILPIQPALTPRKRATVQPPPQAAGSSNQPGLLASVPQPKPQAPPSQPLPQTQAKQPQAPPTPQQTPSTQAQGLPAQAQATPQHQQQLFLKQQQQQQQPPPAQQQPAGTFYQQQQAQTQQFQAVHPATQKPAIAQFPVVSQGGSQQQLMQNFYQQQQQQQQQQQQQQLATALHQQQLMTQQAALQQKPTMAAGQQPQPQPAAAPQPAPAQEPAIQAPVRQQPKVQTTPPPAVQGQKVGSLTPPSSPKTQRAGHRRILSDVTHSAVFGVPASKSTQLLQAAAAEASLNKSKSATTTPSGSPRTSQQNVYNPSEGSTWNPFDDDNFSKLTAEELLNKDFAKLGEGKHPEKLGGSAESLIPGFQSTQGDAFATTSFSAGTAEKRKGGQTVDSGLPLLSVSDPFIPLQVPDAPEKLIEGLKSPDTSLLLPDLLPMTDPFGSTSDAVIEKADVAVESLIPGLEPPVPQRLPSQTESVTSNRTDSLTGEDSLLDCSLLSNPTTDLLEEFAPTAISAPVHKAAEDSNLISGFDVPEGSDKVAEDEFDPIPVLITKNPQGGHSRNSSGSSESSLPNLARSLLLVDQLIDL", "experiment": "Inhibition of AAK1(h) at 10.0 µM in the Eurofins Kinase panel", "conditions": "Compound concentration 10.0 uM"}, "[20]": {"organism": "Rattus norvegicus", "experiment": "Inhibition of Imidazoline I2, Central at 10 µM in the Eurofins-Panlabs radioligand binding assay (Eurofins_assay_241000)", "design": "ligand concentration 2 nM", "conditions": "Compound concentration 10.0 uM"}, "[21]": {"target": "Neuropeptide Y receptor type 1 (Homo sapiens) (UniProt P25929)", "experiment": "Inhibition of Neuropeptide Y Y1 at 10 µM in the Eurofins-Panlabs radioligand binding assay (Eurofins_assay_257010)", "conditions": "Compound concentration 10.0 uM"}, "[22]": {"target": "Matrix metalloproteinase-9 (Homo sapiens) (UniProt P14780)", "experiment": "Inhibition of Peptidase, Matrix Metalloproteinase-9 (MMP-9) at 10 µM in the Eurofins-Panlabs enzyme assay (Eurofins_assay_114910)", "design": "substrate with concentration", "conditions": "Compound concentration 10.0 uM"}, "[23]": {"target": "Dual specificity protein kinase CLK4 (Homo sapiens) (UniProt Q9HAZ1)", "sequence (Q9HAZ1 whole entry, looked up)": "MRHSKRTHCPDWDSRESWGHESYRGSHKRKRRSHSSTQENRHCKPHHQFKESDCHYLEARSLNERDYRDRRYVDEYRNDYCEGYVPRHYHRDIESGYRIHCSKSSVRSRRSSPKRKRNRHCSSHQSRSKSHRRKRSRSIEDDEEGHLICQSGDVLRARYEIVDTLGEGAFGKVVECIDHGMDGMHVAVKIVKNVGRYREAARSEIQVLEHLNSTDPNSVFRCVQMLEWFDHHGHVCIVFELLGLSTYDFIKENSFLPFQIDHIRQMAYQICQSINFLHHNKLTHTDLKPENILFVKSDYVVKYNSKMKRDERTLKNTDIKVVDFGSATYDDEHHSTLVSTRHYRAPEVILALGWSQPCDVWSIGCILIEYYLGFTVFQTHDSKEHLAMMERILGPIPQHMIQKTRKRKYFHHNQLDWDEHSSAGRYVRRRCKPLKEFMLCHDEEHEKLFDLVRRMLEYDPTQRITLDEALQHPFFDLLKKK", "experiment": "Inhibition of CLK4(h) at 10.0 µM in the Eurofins Kinase panel", "conditions": "Compound concentration 10.0 uM"}, "[24]": {"target": "mTOR/FKBP12A/FKBP12B (Homo sapiens) (UniProt P62942+P68106+P42345)", "sequence (P62942 2-108 limits assumed, other chains not shown)": "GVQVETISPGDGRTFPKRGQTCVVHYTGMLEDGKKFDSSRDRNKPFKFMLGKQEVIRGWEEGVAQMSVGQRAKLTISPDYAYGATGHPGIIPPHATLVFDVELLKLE", "sequence (P68106 whole entry partner, other chains not shown)": "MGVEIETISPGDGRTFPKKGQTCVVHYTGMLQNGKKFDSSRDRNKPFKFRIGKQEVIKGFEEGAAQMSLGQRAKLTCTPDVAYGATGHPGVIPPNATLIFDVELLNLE", "experiment": "Inhibition of mTOR FKBP12(h) at 10.0 µM in the Eurofins Kinase panel", "assay_type": "protein-complex assay", "conditions": "Compound concentration 10.0 uM"}, "[25]": {"target": "Thromboxane-A synthase (Homo sapiens) (UniProt P24557)", "experiment": "Inhibition of Thromboxane Synthase at compound concentration of 10.0 uM in the Eurofins-Panlabs enzyme assay (Eurofins_assay_194020)", "design": "substrate with concentration", "conditions": "Compound concentration 10.0 uM"}, "[26]": {"target": "5-hydroxytryptamine receptor 4 (Homo sapiens) (UniProt Q13639)", "experiment": "Inhibition of Serotonin (5-Hydroxytryptamine) 5-HT4 at 10 µM in the Eurofins-Panlabs radioligand binding assay (Eurofins_assay_272000)", "conditions": "Cavia porcellus; Compound concentration 10.0 uM"}, "[27]": {"target": "Protein kinase C alpha type (Homo sapiens) (UniProt P17252)", "experiment": "Inhibition of Protein Serine/Threonine Kinase, PRKCA (PKCα) at 10 µM in the Eurofins-Panlabs enzyme assay (Eurofins_assay_180010)", "design": "substrate with concentration Histone, incubation time 10 min, incubation temperature 25 °C", "conditions": "Compound concentration 10.0 uM"}, "[28]": {"target": "C-X-C chemokine receptor type 2 (Homo sapiens) (UniProt P25025)", "sequence (P25025 whole entry)": "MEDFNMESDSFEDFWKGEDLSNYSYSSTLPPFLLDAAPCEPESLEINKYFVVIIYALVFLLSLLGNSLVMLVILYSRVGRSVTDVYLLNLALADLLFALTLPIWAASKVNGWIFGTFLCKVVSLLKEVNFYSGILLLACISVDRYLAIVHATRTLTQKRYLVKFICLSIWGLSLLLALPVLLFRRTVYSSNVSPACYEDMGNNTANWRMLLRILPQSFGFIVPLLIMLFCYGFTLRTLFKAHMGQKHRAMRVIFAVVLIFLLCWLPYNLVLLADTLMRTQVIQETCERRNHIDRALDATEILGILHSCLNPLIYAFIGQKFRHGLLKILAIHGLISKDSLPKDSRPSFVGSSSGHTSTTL", "experiment": "Inhibition of Chemokine CXCR2 (IL-8RB) at 10 µM in the Eurofins-Panlabs radioligand binding assay (Eurofins_assay_244500)", "conditions": "Compound concentration 10.0 uM"}, "[29]": {"target": "Histamine H3 receptor (Homo sapiens) (UniProt Q9Y5N1)", "sequence (Q9Y5N1 whole entry)": "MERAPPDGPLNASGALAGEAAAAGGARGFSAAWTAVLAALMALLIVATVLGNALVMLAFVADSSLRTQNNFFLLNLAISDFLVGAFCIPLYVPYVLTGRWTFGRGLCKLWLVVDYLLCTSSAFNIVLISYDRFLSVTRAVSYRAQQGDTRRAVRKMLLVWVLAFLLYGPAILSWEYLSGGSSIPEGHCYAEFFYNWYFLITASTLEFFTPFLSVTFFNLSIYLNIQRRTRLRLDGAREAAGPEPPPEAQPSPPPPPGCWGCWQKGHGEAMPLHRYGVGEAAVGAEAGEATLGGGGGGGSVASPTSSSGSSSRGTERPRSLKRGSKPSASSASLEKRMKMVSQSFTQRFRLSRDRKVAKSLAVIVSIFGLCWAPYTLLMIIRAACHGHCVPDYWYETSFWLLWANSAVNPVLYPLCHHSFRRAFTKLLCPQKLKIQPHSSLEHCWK", "conditions": "Compound concentration 10.0 uM"}},
  "data": [
    {"compound": "O=c1n(Cc2cncn2-c2cccc(Cl)c2)nc(-c2ccc(Cl)cc2)n1C[C@H](O)C(F)(F)F", "values": [
      {"measurement": "inhibition", "setting": "[1]", "result": -8.35, "unit": "%"},
      {"measurement": "inhibition", "setting": "[2]", "result": 25, "unit": "%"},
      {"measurement": "inhibition", "setting": "[3]", "result": 10, "unit": "%"}
    ]},
    {"compound": "C[C@H](O)c1nc(Cn2nc(-c3ccc(Cl)cc3)n(C[C@H](O)C(F)(F)F)c2=O)nn1-c1cccc(Cl)c1", "note": "[PECAVAPTAN]", "values": [
      {"measurement": "inhibition", "setting": "[4]", "result": -2, "unit": "%"},
      {"measurement": "inhibition", "setting": "[5]", "result": -5.07, "unit": "%"},
      {"measurement": "inhibition", "setting": "[6]", "result": -8.61, "unit": "%"},
      {"measurement": "inhibition", "setting": "[7]", "result": 17, "unit": "%"},
      {"measurement": "inhibition", "setting": "[8]", "result": -6, "unit": "%"},
      {"measurement": "inhibition", "setting": "[9]", "result": 12, "unit": "%"},
      {"measurement": "inhibition", "setting": "[10]", "result": -2, "unit": "%"},
      {"measurement": "inhibition", "setting": "[11]", "result": 6, "unit": "%"},
      {"measurement": "inhibition", "setting": "[12]", "result": 18, "unit": "%"},
      {"measurement": "IC50", "setting": "[13]", "result": 6.74, "unit": "nM"},
      {"measurement": "Ki", "setting": "[13]", "result": 1.33, "unit": "nM"},
      {"measurement": "inhibition", "setting": "[14]", "result": 0, "unit": "%"},
      {"measurement": "inhibition", "setting": "[15]", "result": -2, "unit": "%"},
      {"measurement": "inhibition", "setting": "[16]", "result": 9, "unit": "%"},
      {"measurement": "inhibition", "setting": "[17]", "result": -4.81, "unit": "%"},
      {"measurement": "inhibition", "setting": "[18]", "result": 21, "unit": "%"},
      {"measurement": "inhibition", "setting": "[19]", "result": -9.01, "unit": "%"},
      {"measurement": "inhibition", "setting": "[20]", "result": 21, "unit": "%"},
      {"measurement": "inhibition", "setting": "[21]", "result": 11, "unit": "%"},
      {"measurement": "inhibition", "setting": "[22]", "result": -2, "unit": "%"},
      {"measurement": "inhibition", "setting": "[23]", "result": 1.42, "unit": "%"},
      {"measurement": "inhibition", "setting": "[24]", "result": 2.46, "unit": "%"},
      {"measurement": "inhibition", "setting": "[25]", "result": -6, "unit": "%"},
      {"measurement": "inhibition", "setting": "[26]", "result": 19, "unit": "%"},
      {"measurement": "inhibition", "setting": "[27]", "result": -2, "unit": "%"},
      {"measurement": "inhibition", "setting": "[28]", "result": -6, "unit": "%"},
      {"measurement": "inhibition", "setting": "[29]", "result": -1, "unit": "%"}
    ]}
  ]
}
